Data as given in article PMC6277434, “Discovery of a potent HMG-CoA reductase degrader that eliminates statin-induced reductase accumulation and lowers cholesterol” (Nature Communications, 2018).
Several values for one entry are separate records, joined by “and”; a condition that tells them apart may be missing. Equal values may be shown once.

What was measured:
[1] = biological target: T1, K89R/K248R HMGCR (Cricetulus griseus, UniProt P00347, K248R/K89R); experiment: Degradation of transfected K89R/K248R HMGCR in CHO-7 cells; type: cell-based; parameters: expressed in transfected cells; host or cells: CHO-7 (A20); conditions: transfected CHO-7 cells, 5 h
T1 sequence (P00347 1-887 K89R/K248R): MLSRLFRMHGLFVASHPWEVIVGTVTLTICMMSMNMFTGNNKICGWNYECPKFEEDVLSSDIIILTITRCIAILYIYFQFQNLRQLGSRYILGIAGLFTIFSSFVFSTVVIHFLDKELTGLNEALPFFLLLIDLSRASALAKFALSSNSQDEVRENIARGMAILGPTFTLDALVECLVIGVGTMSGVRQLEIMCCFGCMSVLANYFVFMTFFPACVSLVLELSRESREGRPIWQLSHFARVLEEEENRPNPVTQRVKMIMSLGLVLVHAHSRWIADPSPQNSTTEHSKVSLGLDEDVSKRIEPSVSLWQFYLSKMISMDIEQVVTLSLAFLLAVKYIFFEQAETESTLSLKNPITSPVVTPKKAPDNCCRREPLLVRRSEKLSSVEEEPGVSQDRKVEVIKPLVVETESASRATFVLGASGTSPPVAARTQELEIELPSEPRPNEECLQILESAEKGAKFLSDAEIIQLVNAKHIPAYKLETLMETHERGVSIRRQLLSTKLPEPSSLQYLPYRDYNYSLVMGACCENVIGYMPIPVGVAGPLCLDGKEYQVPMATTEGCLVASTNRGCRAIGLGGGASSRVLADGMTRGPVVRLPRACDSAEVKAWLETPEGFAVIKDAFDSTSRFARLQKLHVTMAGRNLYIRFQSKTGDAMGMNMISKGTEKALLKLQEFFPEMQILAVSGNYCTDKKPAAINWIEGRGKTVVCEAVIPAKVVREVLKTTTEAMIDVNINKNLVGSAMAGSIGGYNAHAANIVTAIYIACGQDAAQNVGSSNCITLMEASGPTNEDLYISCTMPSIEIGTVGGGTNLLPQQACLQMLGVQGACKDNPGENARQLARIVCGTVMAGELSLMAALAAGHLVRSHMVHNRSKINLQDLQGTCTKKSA
Experimental: HMGCR protein of DMSO-treated cells was defined as 100. […] Lysates were immunoprecipitated and pellets were probed for anti-ubiquitin (P4D1) and anti-HMGCR (A9). e CHO-7 cells were transfected with indicated plasmids and treated as in d. Lysates were immunoprecipitated with anti-Flag M2 beads, and pellets were probed for anti-ubiquitin (HA) and anti-HMGCR (Flag). f CHO-7 cells were transfected with indicated plasmids, then treated with Cmpd 81 for 5 h. […] Data are from three independent experiments and presented as mean ± SD. Source data are provided as a Source Data File.
Cells were harvested and homogenized in the RIPA buffer (50 mM Tris-HCl, pH 8.0, 150 mM NaCl, 2 mM MgCl2, 1.5% NP-40, 0.1% SDS, and 0.5% sodium deoxycholate) supplemented with protease cocktail inhibitor, 10 μM MG-132, 10 μg ml^−1 leupeptin and 1 mM phenylmethylsulfonyl fluoride. The protein concentrations of lysates were determined using BCA method (Beyotime). […] Western blot images were captured by Amersham Imager 600 (GE Healthcare), and integrated optical intensities of each band were quantified by Image-Pro Plus 6 software (Media Cybernetics). […]

[2] = system: Hmgcr mRNA; experiment: RT-qPCR of exogenous WT and mutated Hmgcr mRNA in Huh7 cells; type: cell-based; conditions: lovastatin
Experimental: (§1) Cells were treated as described in corresponding figure legends, then total RNA was extracted from cells or mouse livers using TRI Reagent (T9424, Sigma-Aldrich). Equal amounts of RNA from cells or mice receiving the same treatment were pooled were used for cDNA synthesis with oligo dT and reverse transcriptase MLV (Promega). Gene expression was analyzed by quantitative real-time PCR on a Stratagene Mx30005PTM Q-PCR Systems. The primers used were listed in Supplementary Tables 2–4.
a CHO-7 cells were treated with or without 1 μM lovastatin in medium B with 5%
LDPS and 50 μM mevalonate for 16 h, and harvested for total RNA isolation and
RT-qPCR. Quantifications of the relative mRNA levels of indicated SREBP target
(1 picture or pasted object on this page, not shown here)

[3] = system: Hmgcr mRNA; experiment: RT-qPCR of Hmgcr mRNA in CHO-7 cells; type: cell-based, Chinese hamster; conditions: DMSO = 1; for HMGCR mRNA level, mean: 16 h
Experimental: as §1

[4] = system: Hmgcr mRNA; experiment: RT-qPCR of hepatic Hmgcr mRNA of gavaged mice; type: in vivo; conditions: C57BL/6J mice, 60 mg/kg/day gavage once daily 7 days
Experimental: Cells were treated as described in corresponding figure legends, then total RNA was extracted from cells or mouse livers using TRI Reagent ([…], Sigma-Aldrich). Equal amounts of RNA from cells or mice receiving the same treatment were pooled were used for cDNA synthesis with oligo dT and reverse transcriptase MLV (Promega). Gene expression was analyzed by quantitative real-time PCR on a Stratagene […] Systems. The primers used were listed in Supplementary Tables 2-4. Male C57BL/6 mice (8-week-old) were obtained from Shanghai Laboratory Animal Company (SLAC) (Shanghai, China). Male Ldlr^-/- mice (8-week-old) were obtained from Nanjing Biomedical Research Institute of Nanjing University (Nanjing, China). […] Mice were maintained in a pathogen-free environment and kept on a 12-h light/dark schedule. Mice were gavaged as described in figure legends with saline containing 0.5% methyl cellulose and 0.5% Tween-80. All mice were used in accordance with the guidelines approved by the Institutional Animal Care and Use Committee of Wuhan University.

| Compound | degradation of K89R/K248R HMGCR [1] | mRNA levels of both WT and mutated Hmgcr [2] | HMGCR mRNA level, mean ([3]; CHO-7, lovastatin 0.001 uM) | HMGCR mRNA level, mean ([3]; CHO-7, lovastatin 0.003 uM) | HMGCR mRNA level, mean ([3]; CHO-7, lovastatin 0.01 uM) | HMGCR mRNA level, mean ([3]; CHO-7, lovastatin 0.03 uM) | HMGCR mRNA level, mean ([3]; CHO-7, lovastatin 0.1 uM) | HMGCR mRNA level, mean ([3]; CHO-7, lovastatin 0.3 uM) | HMGCR mRNA level, mean ([3]; CHO-7, lovastatin 1 uM) | HMGCR mRNA level, mean ([3]; CHO-7, lovastatin 3 uM) | HMGCR mRNA level, mean ([3]; CHO-7, lovastatin 10 uM) | increase of Hmgcr mRNA abundance ([3]; CHO-7 cells, statin 16 h (lovastatin up to 10 μM)) [fold] | hepatic Hmgcr mRNA level, mean ([4]; vehicle = 1) | hepatic Hmgcr mRNA level, single values ([4]; vehicle = 1) | hepatic Hmgcr mRNA level, mean ([4]; vehicle = 1, listed as lovastatin) [fold] |
| --- | --- | --- | --- | --- | --- | --- | --- | --- | --- | --- | --- | --- | --- | --- | --- |
| C=CCC(O)(CC=C)CCCC(C)C1CCC2C3C(O)C=C4C(C)(C)C(O)CCC4(C)C3CCC12C (stereo not drawn) [Cmpd 81] | blunted the effect | – | – | – | – | – | – | – | – | – | – | – | – | – | – |
| CC[C@H](C)C(=O)O[C@H]1C[C@@H](C)C=C2C=C[C@H](C)[C@H](CC[C@@H]3C[C@@H](O)CC(=O)O3)[C@H]21 [Lovastatin, lovastatin] | – | did not show obvious change | 1.196 | 1.51 | 1.897 | 2.523 | 2.959 | 3.447 | 3.688 | 3.602 | 3.663 | 3.6 | 2.5 ± 0.2 fold and 2.537 fold | 2.5 and 2.78 and 2.33 | 2.5 |
